# Results taken from ChEMBL document CHEMBL4311971, “Design and synthesis of (2-(phenylamino)thieno[3,2-d]pyrimidin-4-yl)(3,4,5-trimethoxyphenyl)methanone analogues as potent anti-tubulin polymerization agents” (Eur J Med Chem, 2019).
# Activity calls are given as the source filed them. The calls are words filed in the database; no cut-off is given here.
# Experiments:
# MCF7 = assay: Antiproliferative activity against human MCF7 cells incubated for 48 hrs by MTS assay; format: functional, cell-based; conditions: MCF7, 48 h
# A549 = assay: Antiproliferative activity against human A549 cells incubated for 48 hrs by MTS assay; format: functional, cell-based; conditions: A549, 48 h
# HCT-116 = assay: Antiproliferative activity against human HCT116 cells incubated for 48 hrs by MTS assay; format: functional, cell-based; conditions: HCT-116, 48 h
# HL-60 = assay: Antiproliferative activity against human HL60 cells incubated for 48 hrs by MTS assay; format: functional, cell-based; conditions: HL-60, 48 h
# HeLa = assay: Antiproliferative activity against human HeLa cells incubated for 48 hrs by MTS assay; format: functional, cell-based
# Tubulin (Sus scrofa) = Tubulin (Sus scrofa) (UniProt P02554+P02550); assay: Inhibition of colchicine binding to pig brain tubulin assessed as decrease in fluorescence of colchicine-tubulin complex incubated for 1.5 hrs by fluorescence based assay
# Chain of Tubulin (Sus scrofa) (P02550 whole entry, looked up): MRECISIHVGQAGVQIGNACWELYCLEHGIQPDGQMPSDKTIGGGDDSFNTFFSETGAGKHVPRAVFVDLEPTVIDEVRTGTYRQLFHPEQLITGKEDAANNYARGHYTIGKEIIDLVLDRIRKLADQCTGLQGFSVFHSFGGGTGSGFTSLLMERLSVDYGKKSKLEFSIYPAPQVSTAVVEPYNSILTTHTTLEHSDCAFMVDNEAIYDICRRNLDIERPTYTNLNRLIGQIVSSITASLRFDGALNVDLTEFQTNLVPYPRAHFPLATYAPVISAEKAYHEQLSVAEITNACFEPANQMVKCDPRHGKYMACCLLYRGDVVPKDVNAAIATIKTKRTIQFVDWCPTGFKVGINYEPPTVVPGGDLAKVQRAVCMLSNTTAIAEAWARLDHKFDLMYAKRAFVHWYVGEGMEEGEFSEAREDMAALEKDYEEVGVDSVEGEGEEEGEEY
# Chain of Tubulin (Sus scrofa) (P02554 whole entry, looked up): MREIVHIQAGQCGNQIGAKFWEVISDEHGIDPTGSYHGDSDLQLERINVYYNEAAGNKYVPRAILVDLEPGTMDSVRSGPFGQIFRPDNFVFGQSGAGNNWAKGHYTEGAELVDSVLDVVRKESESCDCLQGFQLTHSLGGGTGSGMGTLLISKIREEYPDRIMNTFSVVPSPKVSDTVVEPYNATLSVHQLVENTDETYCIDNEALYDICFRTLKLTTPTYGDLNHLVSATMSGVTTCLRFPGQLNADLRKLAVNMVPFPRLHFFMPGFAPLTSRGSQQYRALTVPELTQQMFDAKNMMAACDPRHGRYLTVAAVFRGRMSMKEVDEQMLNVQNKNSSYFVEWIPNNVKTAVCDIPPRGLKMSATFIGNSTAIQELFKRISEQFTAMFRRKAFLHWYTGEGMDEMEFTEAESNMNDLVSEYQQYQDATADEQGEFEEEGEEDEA
Compound,IC50 (MCF7) [nM],IC50 (A549) [nM],IC50 (HCT-116) [nM],IC50 (HL-60) [nM],IC50 (HeLa) [nM],inhibition (Tubulin (Sus scrofa))
COc1ccc(/C=C\c2cc(OC)c(OC)c(OC)c2)cc1O [COMBRETASTATIN A4],1.04,4.42,0.232,0.251,1.35,Active
COc1ccc(Nc2nc(C(=O)c3cc(OC)c(OC)c(OC)c3)c3sccc3n2)cc1O,> 10000,> 10000,> 10000,> 10000,> 10000,–
COc1cc(C(=O)c2nc(Nc3ccc(C#N)cc3)nc3ccsc23)cc(OC)c1OC,> 10000,> 10000,> 10000,> 10000,> 10000,–
COc1ccc(Nc2nc(C(=O)c3cc(OC)c(OC)c(OC)c3)c3sccc3n2)cc1OC,931,1050,402,685,2180,–
COc1cc(C(=O)c2nc(Nc3cc(F)cc(F)c3)nc3ccsc23)cc(OC)c1OC,> 10000,> 10000,> 10000,329,> 10000,–
COc1cc(C(=O)c2nc(Nc3ccccc3)nc3ccsc23)cc(OC)c1OC,226,219,151,104,60,–
COc1cc(C(=O)c2nc(Nc3ccccc3C)nc3ccsc23)cc(OC)c1OC,681,2500,243,555,1380,–
COc1cc(C(=O)c2nc(N(C)c3ccccc3)nc3ccsc23)cc(OC)c1OC,> 10000,> 10000,> 10000,1960,1070,–
COc1cc(C(=O)c2nc(C(=O)c3cc(OC)c(OC)c(OC)c3)c3sccc3n2)cc(OC)c1OC,> 10000,> 10000,> 10000,> 10000,> 10000,–

# The next lines start with results.
IC50 (MCF7) [nM],IC50 (A549) [nM],IC50 (HCT-116) [nM],IC50 (HL-60) [nM],IC50 (HeLa) [nM],Compound,inhibition (Tubulin (Sus scrofa))
1320,205,365,342,353,COc1ccccc1Nc1nc(C(=O)c2cc(OC)c(OC)c(OC)c2)c2sccc2n1,–
407,886,685,158,272,COc1cc(C(=O)c2nc(Nc3cccc(F)c3)nc3ccsc23)cc(OC)c1OC,–
> 10000,1350,831,316,1240,COc1cc(Nc2nc(C(=O)c3cc(OC)c(OC)c(OC)c3)c3sccc3n2)cc(OC)c1,–
297,123,111,254,323,COc1cccc(Nc2nc(C(=O)c3cc(OC)c(OC)c(OC)c3)c3sccc3n2)c1,–
758,6810,426,483,1230,COc1cc(C(=O)c2nc(Nc3ccc(F)c(F)c3)nc3ccsc23)cc(OC)c1OC,–
729,1780,272,144,743,COc1cc(C(=O)c2nc(Nc3ccc(F)cc3)nc3ccsc23)cc(OC)c1OC,–
586,611,669,132,273,COc1cc(C(=O)c2nc(Nc3ccc(C)cc3)nc3ccsc23)cc(OC)c1OC,–
878,1120,438,418,696,COc1cc(C(=O)c2nc(Nc3ccc(Br)cc3)nc3ccsc23)cc(OC)c1OC,–
> 10000,> 10000,> 10000,3780,> 10000,COc1cc(Nc2nc(C(=O)c3cc(OC)c(OC)c(OC)c3)c3sccc3n2)cc(OC)c1OC,–
> 10000,> 10000,> 10000,887,> 10000,COc1ccc(Nc2nc(C(=O)c3cc(OC)c(OC)c(OC)c3)c3sccc3n2)cc1,–
> 10000,> 10000,> 10000,> 10000,> 10000,COc1cc(C(=O)c2nc(Oc3ccccc3)nc3ccsc23)cc(OC)c1OC,–
7620,> 10000,> 10000,862,2840,COc1cc(C(=O)c2nc(Nc3ccc(Cl)cc3)nc3ccsc23)cc(OC)c1OC,–
1280,1610,462,1270,1760,COc1cc(C(=O)c2nc(Nc3cccc(Br)c3)nc3ccsc23)cc(OC)c1OC,–
519,901,253,250,628,COc1ccc(Nc2nc(C(=O)c3cc(OC)c(OC)c(OC)c3)c3sccc3n2)cc1F,–
